For one data set, the system named is C57BL/6 mice fed on HFD. The note with it: end of study, cited from earlier work.
The conditions of data set [1]: cited from earlier work; for TC level change from baseline / LDL level change from baseline: placebo +2%; for HDL level change from baseline: placebo +1%; for Effect on Body Weight (placebo-adjusted change from baseline) / Effect on HbA1c (placebo-adjusted change from baseline) / Effect on Body Weight (placebo-adjusted change from baseline), percent: QD 24-26 weeks.
For data set [2] the following is noted: in vivo; cited from earlier work.
In the next data set the test system is NASH in vivo models. As to conditions: Male C57BL/6J mice fed AMLN diet for 32 weeks, 10 nmol/kg, SC for 12 weeks, cited from earlier work.
Data set [3] deals with AMLN-diet induced mice (fatty liver disease/NASH model). Type of data set: in vivo. The note with it: in words. The source says:
This Example provides the results obtained from an in vivo mouse model of fatty liver disease treatment to investigate the therapeutic effect of DA on the treatment of NASH versus positive control semaglutide (a GLP-1 agonist marketed drug for lowering HbA1c). This study used a positive control semaglutide, a vehicle control, study drug DA and a combination of semaglutide and DA. Mouse strain (B6 mice) was used, and the animals were already adults (23 weeks old) when the study began because the animals were already fed an AMLN diet for 17 weeks prior to the study being initiated. The study dose began at 75 mg/kg BID.
The study included 3 groups of 10 mice each, (A) vehicle control with distilled water by gavage BID, (B) DA by gavage BID, and (C) semaglutide […] sc QD. Body weights and changes were measured 3× per week. Serum metabolic markers (blood glucose, blood insulin, HbA1c, HDL, LDL triglycerides and bile acids) were measured at beginning of dosing (baseline) and end of study. At the end of the study, histopathology of liver samples and serum levels of inflammatory biomarkers (IL-6, TNFα, CK-18 and TGF-β) were evaluated. Histopathology was performed blindly with a scoring scale according to NAFLD Activity Score and Fibrosis Score according to Table 13. Table 14 identifies the kits and equipment used to measure serum parameters.

The conditions of data set [4]: cited from earlier work; for percentage of patients in whom NASH resolution was achieved with no worsening of fibrosis: placebo 17%.
In the next data set the test system is ob/ob mice. As to conditions: cited from earlier work.
In data set [5] the test system is C57Bl/6J mice fed with high-fat diet. The note with it: alogliptin 0.03% (wt/wt) in diet for life span, cited from earlier work; for Control-adjusted Percent Change in Body Weight Gain / Control-adjusted Percent Change in Fasting Blood Glucose / Control-adjusted Percent Change in Insulin Level: sitagliptin 0.004% in diet 12 weeks; for Control-adjusted Percent Change in Body Weight Gain / Control-adjusted Percent Change in Fasting Blood Glucose / Control-adjusted Percent Change in Insulin Level / Control-adjusted Percent Change in Lipid Levels: TC / Control-adjusted Percent Change in Lipid Levels: TG: vildagliptin 30 mg/kg/day 7 weeks.

Setting [6] is: exenatide 24 nmol/kg QD IP 4 weeks, dulaglutide 0.6 mg/kg once weekly IP 12 weeks, liraglutide 0.3 mg/kg QD SC 38 days, semaglutide 25 nmol/kg every two days SC 3 weeks.
Where [7] appears, read: exenatide 24 nmol/kg QD IP 4 weeks, semaglutide 25 nmol/kg every two days SC 3 weeks.
[8] abbreviates: semaglutide 25 nmol/kg every two days SC 3 weeks.
Setting [9] is: semaglutide 3 mg, sitagliptin 100 mg, saxagliptin 2.5 mg, vildagliptin 50 mg, alogliptin 12.5 mg, linagliptin 5 mg.
The mark [10] stands for this setting: semaglutide 3 mg, sitagliptin 100 mg, saxagliptin 2.5 mg, vildagliptin 50 mg.
Where [11] appears, read: semaglutide 7 mg, sitagliptin 200 mg, saxagliptin 5 mg, vildagliptin 100 mg, alogliptin 25 mg.
[12] abbreviates: semaglutide 7 mg, sitagliptin 200 mg, saxagliptin 5 mg, vildagliptin 100 mg.
Where [13] appears, read: semaglutide 14 mg, saxagliptin 10 mg.
Where [14] appears, read: vildagliptin 1.9 mg/kg BID 33 days.
The mark [15] stands for this setting: vildagliptin 6.3 mg/kg BID 33 days.
Where [16] appears, read: exenatide 24 nmol/kg QD IP 4 weeks, dulaglutide 0.6 mg/kg once weekly IP 12 weeks, liraglutide 0.3 mg/kg QD SC 38 days.
Where [17] appears, read: sitagliptin 0.0018% in diet 12 weeks, alogliptin 42.2 mg/kg/day 28 days.

Read-outs that look alike come from different tables or passages of the source. Marks after values point to notes of the source that are not given here.

Consider Semaglutide, for which the “Control-adjusted Percent Change in Fasting Blood Glucose” value in the data set with C57BL/6 mice fed on HFD (setting [6]) is listed as −12.8%***. Besides, in the data set with C57BL/6 mice fed on HFD (setting [7]), the “Control-adjusted Percent Change in Lipid Levels: TC” value is recorded as “TC: −16.7%**” and the “Control-adjusted Percent Change in Lipid Levels: TG” value is listed as “TG: −13.8%**”. In addition, in the data set on C57BL/6 mice fed on HFD (setting [8]), the “Absolute body weight percent change” value is given as −13.4%^## and the “Control-adjusted Percent Change in Lipid Levels: LDL” value was “LDL: −9.3%*”. Also, the “TC level change from baseline” value in data set [1] (oral semaglutide 3 mg, 26-week trial product estimate from another clinical trial) is “from baseline: −3%”. In data set [1] (oral semaglutide 3 mg, 26-week), the “HDL level change from baseline” value is reported as “from baseline: 0%” and the “LDL level change from baseline” value is “from baseline: −4%”. The “TG level change from baseline” value in data set [1] (oral semaglutide 3 mg, 26-week, placebo −2%) is listed as “from baseline: −5%”. In data set [1] (oral semaglutide 7 mg, 26-week), the “HDL level change from baseline” value is on record as “(3 mg), −2%”; the “LDL level change from baseline” value is given as “(3 mg) ^$, −6%”; the “TC level change from baseline” value is “(3 mg) ^$$ −5%”. For the same molecule, in data set [1] (oral semaglutide 7 mg, 26-week, placebo −2%), the “TG level change from baseline” value is given as “(3 mg), −9%”. Moreover, in data set [1] (setting [9]), the “Effect on Body Weight (placebo-adjusted change from baseline)” value is 3 mg: −0.2 kg and the “Effect on HbA1c (placebo-adjusted change from baseline)” value is given as 3 mg: −0.7%. Besides, the “Effect on Body Weight (placebo-adjusted change from baseline), percent” value in data set [1] (setting [10]) was “(−0.23%)”. Besides, in data set [1] (setting [11]), the “Effect on Body Weight (placebo-adjusted change from baseline)” value is 7 mg: −1.0 kg and the “Effect on HbA1c (placebo-adjusted change from baseline)” value is 7 mg: −1.2%. Besides, the “Effect on Body Weight (placebo-adjusted change from baseline), percent” value in data set [1] (setting [12]) is reported as “(−1.1%)”. Also, in data set [1] (setting [13]), the “Effect on Body Weight (placebo-adjusted change from baseline)” value is recorded as 14 mg: −2.6 kg; the “Effect on Body Weight (placebo-adjusted change from baseline), percent” value was “(−3.0%)”; the “Effect on HbA1c (placebo-adjusted change from baseline)” value is listed as 14 mg: −1.4%. Also, in data set [2], the “Incidence of Hypoglycemic Episodes for Combination with Insulin (vs. Placebo)” value was 29.8%* and the “Incidence of Hypoglycemic Episodes for Monotherapy at the Highest Dose (vs. Placebo)” value is on record as 3.8%. For the same molecule, the “liver TG and total cholesterol levels, plasma ALT level, and liver content of fibrosis markers” value in the data set on NASH in vivo models is “Significantly decreased”. Also, the “liver weight and NAS overall score” value in the data set on NASH in vivo models (significant) was “decreased liver weight”. In addition, the “NAFLD Activity Score based on blinded histopathologic review” value in data set [3] (12 weeks, DA 75 then 50 mg/kg BID by gavage, semaglutide 10 mmol/kg sc QD) is given as “significantly improved NAFLD Activity Score”. The “body weight and body weight change” value in data set [3] (12 weeks, DA 75 then 50 mg/kg BID, semaglutide 10 mmol/kg sc QD) is on record as “remarkable effect on body weight”. Further, in data set [3] (end of study), the HDLs entry is on record as “significantly decreased”, the LDLs entry is on record as “significantly decreased” and the TGs result was “significantly decreased”. The “percentage of patients in whom NASH resolution was achieved with no worsening of fibrosis” value (“percentage … with no worsening of fibrosis” for short) in data set [4] (0.1-mg group) is listed as 40%. For the same molecule, the “percentage … with no worsening of fibrosis” value in data set [4] (0.2-mg group) is 36%. In data set [4] (0.4-mg group, placebo 1%), the “mean percent weight loss” value was 13%. Also, the “percentage … with no worsening of fibrosis” value in data set [4] (0.4-mg group) is reported as 59%. For the same molecule, in data set [4] (human, in vivo), the incidence of constipation is listed as 22%, the incidence of nausea is on record as 42%, the incidence of vomiting was 15% and the “patients with malignant neoplasms” value is reported as 1%. Moreover, the “patients with neoplasms (benign, malignant, or unspecified)” value in data set [4] (human, in vivo) is recorded as 15%.

Take `N#C[C@@H]1CCCN1C(=O)CNC12CC3CC(CC(O)(C3)C1)C2` [Vildagliptin]: in data set [1] (setting [9]), the “Effect on Body Weight (placebo-adjusted change from baseline)” value is reported as 50 mg: +0.6 kg and the “Effect on HbA1c (placebo-adjusted change from baseline)” value is recorded as 50 mg: −0.7%. For the same molecule, the “Effect on Body Weight (placebo-adjusted change from baseline), percent” value in data set [1] (setting [10]) was “(+0.65%)”. In addition, in data set [1] (setting [11]), the “Effect on Body Weight (placebo-adjusted change from baseline)” value was 100 mg: +1.2 kg and the “Effect on HbA1c (placebo-adjusted change from baseline)” value is given as 100 mg: −1.1%. For the same molecule, the “Effect on Body Weight (placebo-adjusted change from baseline), percent” value in data set [1] (setting [12]) is given as “(+1.3%)”. In addition, the “TG level change from baseline” value in data set [1] (vildagliptin 50 mg QD 24 weeks, placebo +19%) is recorded as “from baseline: +1%”. Further, the “TG level change from baseline” value in data set [1] (vildagliptin 100 mg QD 24 weeks, placebo +19%) was “(50 mg) ^$ and +5%”. The “Other lipid parameters, change” value in data set [1] (vildagliptin, all treatment groups, no significant between-treatment differences) is “changed by <3%”. In the data set on ob/ob mice (setting [14]), the “Control-adjusted Percent Change in Fasting Blood Glucose” value is recorded as −29.4% and the “Control-adjusted Percent Change in TG Level” value is −29.3%. Besides, in the data set on ob/ob mice (setting [15]), the “Control-adjusted Percent Change in Fasting Blood Glucose” value is −40.2% and the “Control-adjusted Percent Change in TG Level” value is on record as −19.9%. Besides, in data set [5], the “Control-adjusted Percent Change in Body Weight Gain” value is recorded as “+11%”, the “Control-adjusted Percent Change in Fasting Blood Glucose” value is −15.1%*, the “Control-adjusted Percent Change in Insulin Level” value was −33.2% and the “Control-adjusted Percent Change in Lipid Levels: TC” value is −51.5% in TC*. Also, the “Control-adjusted Percent Change in Lipid Levels: TG” value in data set [5] is −23.6% in TG**.

Regarding “Dulaglutide: fusion protein GLP-1 receptor agonist”, in the data set on C57BL/6 mice fed on HFD (dulaglutide 0.6 mg/kg once weekly IP 12 weeks, liraglutide 0.3 mg/kg QD SC 38 days), the “Control-adjusted Percent Change in Insulin Level” value is −77%*. For the same molecule, in the data set on C57BL/6 mice fed on HFD (setting [16]), the “Control-adjusted Body Weight Gain” value is -8.1 g and the “Control-adjusted Percent Change in Body Weight” value was −15.9%*. For the same molecule, the “Control-adjusted Percent Change in Fasting Blood Glucose” value in the data set with C57BL/6 mice fed on HFD (setting [6]) is −16.3%*. For the same molecule, in data set [2], the “Incidence of Hypoglycemic Episodes for Combination with Insulin (vs. Placebo)” value is 14.7%*, the “Incidence of Hypoglycemic Episodes for Combination with Metformin (vs. Placebo)” value is 0.7% and the “Incidence of Hypoglycemic Episodes for Combination with a Sulfonylurea (vs. Placebo)” value was 3.3%.

For the molecule `Cn1c(=O)cc(N2CCC[C@@H](N)C2)n(Cc2ccccc2C#N)c1=O` [Alogliptin], in data set [1] (alogliptin 12.5 mg QD 26 weeks, placebo +1.3), the “HDL (mg/dL)” value is reported as “HDL (mg/dL): +0.9”. For the same molecule, the “LDL (mg/dL)” value in data set [1] (alogliptin 12.5 mg QD 26 weeks, placebo +4.6) is “LDL (mg/dL): −0.5”. For the same molecule, in data set [1] (alogliptin 12.5 mg QD 26 weeks, placebo +10.1), the “TC (mg/dL)” value is recorded as “TC (mg/dL): −1.2”. In addition, the “TG (mg/dL)” value in data set [1] (alogliptin 12.5 mg QD 26 weeks, placebo +26.5) is on record as “TG (mg/dL): −5.8”. Further, in data set [1] (setting [9]), the “Effect on Body Weight (placebo-adjusted change from baseline)” value was 12.5 mg: −0.27 kg and the “Effect on HbA1c (placebo-adjusted change from baseline)” value is given as 12.5 mg: −0.54%. In addition, in data set [1] (setting [11]), the “Effect on Body Weight (placebo-adjusted change from baseline)” value was 25 mg: −0.4 kg and the “Effect on HbA1c (placebo-adjusted change from baseline)” value is 25 mg: −0.57%. In the data set on ob/ob mice (alogliptin 42.2 mg/kg/day 28 days), the “Control-adjusted Percent Change in HbA1c Level” value is −13%**. For the same molecule, in the data set on ob/ob mice (setting [17]), the “Control-adjusted Percent Change in Fasting Blood Glucose” value is on record as −15.6%, the “Control-adjusted Percent Change in Insulin Level” value is reported as “+105%* *” and the “Control-adjusted Percent Change in TG Level” value was −24.5%. In data set [5], the “Control-adjusted Percent Change in HbA1c Level” value is −8.8%, the “Control-adjusted Percent Change in Lipid Levels: LDL” value is reported as −16.4% in LDL, the “Control-adjusted Percent Change in Body Weight Gain” value is given as −32.6%* and the “Control-adjusted Percent Change in Fasting Blood Glucose” value is on record as −10.1%. Moreover, in data set [5], the “Control-adjusted Percent Change in Insulin Level” value is -47.9%*, the “Control-adjusted Percent Change in Lipid Levels: TC” value is −1.1% in TC and the “Control-adjusted Percent Change in Lipid Levels: TG” value is −19.2% in TG*.
